# Results: US20030082227A1, “Transdermal device comprising a reservoir and a matrix containing the same active principle” (priority 1999, published 2003)
# Assay: Solubility of testosterone in tetrahydrofuran
# Format: physicochemical
compound,measurement,value
"C[C@]12CC[C@H]3[C@@H](CCC4=CC(=O)CC[C@@]43C)[C@@H]1CC[C@@H]2O [testosterone, 17β-hydroxyandrost-4-en-3-one]",solubility of testosterone in THF,~27 % m/m
